≈ marks a conversion by molar mass, not a printed value. Entries after “also recorded” stand apart in the source; their conditions may differ. Where two headings read alike, the source gives them in different places.
How the values were obtained:
[1] = test system: A. baumannii; assay: Growth inhibition (broth microdilution), A. baumannii; assay type: cell-based, Acinetobacter baumannii; conditions: Table 1
Text: (§1) The antimicrobial activity of each peptide can be tested following standard broth microdilution protocols recommended by the National Committee for Clinical Laboratory Standard. Multidrug-resistant Staphylococcus aureus strain (ATCC BAA-44) and Acinetobacter baumannii (ATCC BAA-747) can be used in this study, as well as Ampicillin- and streptomycin-resistant Escherichia coli (D31), obtained from the E. coli Genetic Resource Center (Yale University, New Haven, Conn.). Bacteria can be grown overnight in Tryptic Soy broth at 37° C. Then, cultures are diluted in Mueller-Hinton broth to a final concentration range of 2×10^4 to 2×10^5 CFU/ml. Bacterial inocula are incubated at 37° C. in phosphate-buffered saline (PBS) buffer (pH7.2) with various dilutions of peptide stock. The 18-hour absorbance data are used to calculate the percentage of inhibition for each sample by comparison with the absorbance of cultures without sample. Bacterial growth is measured by turbidity as optical density at 600 nm (OD600), using a Genesys 5 Spectrophotometer (Rochester, N.Y.) or equivalent instrument. All assays can be carried out in triplicate. The concentration of peptide that results in 50% inhibition of growth is recorded as the IC50. In addition the concentration of agents needed can be monitored to reduce the bacterial population by three logs, IC99.9. This is a more rigorous indicator of the amount needed to prevent an infection.
(§2) The antimicrobial activity of each triazine compound was tested by following standard broth microdilution protocols recommended by the National Committee for Clinical Laboratory Standard. All compounds were initially tested against Bacillus subtilis (ATCC 6633; Rockville, Md.). Bacteria were grown in Mueller Hinton Broth (MHB) at 37° C. for overnight. Then, cultures were diluted in MHB to a final concentration of 2×10^4 to 2×10^5 CFU/mL. Bacterial inocula were incubated at 37° C. in PBS buffer (pH 7.2) with varying concentrations of 2-fold dilution of triazine stocks. The 18-hour absorbance data were used to calculate the percent inhibition for each sample by comparing with the absorbance of cultures without triazine compounds. Bacterial growth was measured by turbidity as optical density at 600 nm using a Genesys 5 Spectrophotometer (Rochester, N.Y.).

[2] = test system: E. coli D31; assay: Growth inhibition (broth microdilution), E. coli D31; assay type: cell-based, Escherichia coli
Text: as §1, §2

[3] = test system: S. aureus; assay: Growth inhibition (broth microdilution), S. aureus; assay type: cell-based, Staphylococcus aureus; conditions: for IC50: Table 3
Text: as §1, §2

[4] = test system: fresh sheep erythrocytes; assay: Hemolytic activity; assay type: cell-based
Description: Hemolytic activity of triazine compounds is assessed using fresh sheep erythrocytes (Fitzgerald Inc., Concord, Mass.). The red blood cell suspension is incubated in PBS buffer (pH 7.2) with varying concentrations of sample stocks at 37° C. for 30 minutes, and then spun down at 3,000 rpm for 10 mins. The resulting supernatant is diluted by a factor of 40 with distilled water. The absorbance of the supernatant at 540 nm is measured using a Genesys 5 Spectrophotometer. Zero % and 100% hemolysis controls are obtained by incubating the cells with buffer and 1% Triton-X, respectively.
Hemolytic activity of three triazine compounds Is assessed on fresh sheep erythrocytes (Fitzgerald Inc., Concord, Mass.). The red blood cell suspension Is incubated in PBS buffer (pH 7.2) with varying concentrations of sample stocks at 37° C. for 30 minutes, and then spun down at 3,000 rpm for 10 mins. The resulting supernatant is diluted by a factor of 40 in distilled water. The absorbance of the supernatant at 540 nm is measured using a Genesys 5 Spectrophotometer. Zero hemolysis and 100% hemolysis controls are obtained by incubating the cells with buffer and 1% Triton-X, respectively. Sample concentration yielding 50% hemolysis is used as hemolytic dose (HD50) determined from dose-response curves.

[5] = test system: B. subtilis; assay: Growth inhibition (broth microdilution), B. subtilis; assay type: cell-based; conditions: Bacillus subtilis; for MIC50: read-out: B. Subtilis MIC50; for MIC90: read-out: B. Subtilis MIC90; for IC50: Table 3
Description: as §2

[6] = test system: E. coli RP437/pRSH103 biofilm; assay: Biofilm formation in 96 well plate (crystal violet, OD540); assay type: cell-based
Description: This assay is based on the protocols described previously (Li, 2001 #745; Pratt, 1998 #725) with slight modifications. Briefly, E. coli RP437 or the test strain is used to form biofilms in 96 well plates in the presence of dendrimer peptides (RW)4D or other agents. An overnight culture of E. coli RP437 grown in LB medium is used to inoculate LB medium in 96 well plates to an OD600 of 0.05. The peptides can be added to a final concentration of 0, 5, 10, 20, or 40 μM, respectively. Four replicates are tested for each condition. All samples are incubated at 37° C. without shaking for 24 hours to form the film. Then planktonic cells are removed and the plates with biofilms are washed three times with DI H2O and dried by gentle patting on a piece of paper towel. To stain the biofilms, 300 μL of 0.1% crystal violet is added into each well and incubated for 20 minutes at room temperature. Then the plates are washed three times with DI H2O to remove extra staining dye. OD540 is then measured to quantify the biofilm on the bottom of each well.
(§3) The strain for this experiment used was E. coli RP437/pRSH103, a strong film forming strain. The surface studied was that of a 96 well plate. Culture conditions were 24 hours or 48 hours of incubation in Luria-Bertani Broth (LB) supplemented with 10 μg/mL tetracycline at 37° C. The following assays were performed:
(§4) 1. Measurement of total cell growth in each well using OD600. 2. Quantification of the biofilm at the bottom of each well by staining with 0.1% crystal violet and reading OD540.
2. Quantification of total biofilm by dissolving the crystal violet with ethanol and reading at OD540 Absorbance at 540 nm and 600 nm with the medium and triazine only (no cells) was also measured to control the results by subtracting the background reading.

[7] = test system: E. coli RP437/pRSH103 planktonic cells; assay: Total planktonic cell growth (OD600); assay type: cell-based; conditions: concentration range 0-5 μg/mL
Description: as §3, §4

[8] = test system: A. baumannii; assay: Evolution of resistance on exposure to sublethal concentrations; assay type: cell-based; conditions: 400 generations of exposure to sublethal concentrations
Text: FIG. 1 graphically depicts the experimental evaluation of the ability of A. baumannii to evolve resistance to sublethal TN5 and the AMP indolicidin relative to two antibiotics in current use. Changes in the IC50 of cultures exposed to sublethal doses of TN5 are expressed as ratios of the new to original values. For reference, the response of these cells to two current antibiotics is shown.
In particular, FIG. 1 depicts the results of the experimental evaluation of the ability of A. baumannii to evolve resistance to sublethal TN5 and the AMP indolicidin relative to two antibiotics in current use. Changes in the IC50 of cultures exposed to sublethal doses of TN5 are expressed as ratios of the new to original values. For reference, the response of these cells to ciprofloxacin and gentamycin, two current antibiotics is shown.

[9] = Escherichia coli, D31, Table 2, read-out: E. Coli MIC50
[10] = Escherichia coli, D31, Table 2, read-out: E. Coli MIC90
[11] = Escherichia coli, D31, Table 3, read-out: E. coli IC50
[12] = Staphylococcus aureus, Table 2, read-out: S. Aureus MIC50
[13] = Staphylococcus aureus, Table 2, read-out: S. Aureus MIC90

CCCCN(CCCC)CCCNc1nc(NCc2ccccc2)nc(NCc2cccc3ccccc23)n1 [TN4]
MIC50 [1]: 302.5 µg/mL (≈ 575 µM) | MIC90 [1]: 462.5 µg/mL (≈ 880 µM) | MIC50 ([2]; E. coli D31, Table 1): 18.8 µg/mL (≈ 35.8 µM) | MIC90 ([2]; E. coli D31, Table 1): 62.5 µg/mL (≈ 119 µM) | MIC50 ([3]; S. aureus, Table 1): 68 µg/mL (≈ 129 µM) | MIC90 ([3]; S. aureus, Table 1): 117.5 µg/mL (≈ 223 µM) | HD50 ([4]; 50% hemolysis, Table 1): 221.3 µg/mL

CCCCN(CCCC)CCCNc1nc(NCCc2c[nH]c3ccccc23)nc(NCCc2c[nH]c3ccccc23)n1 [TZ-WK(Bu)2W]
MIC50 [2, 9]: 21.3 µg/mL (≈ 36.6 µM) | MIC90 [2, 10]: 55.2 µg/mL (≈ 94.9 µM) | IC50 [2, 11]: 21.3 µg/mL (≈ 36.6 µM) | MIC50 [3, 12]: 1.8 µg/mL (≈ 3.09 µM) | MIC90 [3, 13]: 2.4 µg/mL (≈ 4.13 µM) | IC50 ([3]; Staphylococcus aureus): 1.8 µg/mL (≈ 3.09 µM) | MIC50 ([5]; Table 2): 1 µg/mL (≈ 1.72 µM) | MIC90 ([5]; Table 2): 3.1 µg/mL (≈ 5.33 µM) | IC50 [5]: 1 µg/mL (≈ 1.72 µM) | HD50 ([4]; Table 3): 91.5 µg/mL

NCCCCNc1nc(NCc2ccccc2)nc(NCc2cccc3ccccc23)n1 [TN5]
MIC50 [1]: 3 µg/mL (≈ 7.02 µM) | MIC90 [1]: 5.1 µg/mL (≈ 11.9 µM) | MIC50 ([2]; E. coli D31, Table 1): 4.75 µg/mL (≈ 11.1 µM) | MIC90 ([2]; E. coli D31, Table 1): 8.9 µg/mL (≈ 20.8 µM) | MIC50 ([3]; S. aureus, Table 1): 5.9 µg/mL (≈ 13.8 µM) | MIC90 ([3]; S. aureus, Table 1): 9.8 µg/mL (≈ 22.9 µM) | HD50 ([4]; 50% hemolysis, Table 1): 167.5 µg/mL | Biofilm formation ([6]; E. coli): prevents film formation | Biofilm formation ([6]; E. coli, listed as TN-5): prevents formation of biofilms | Biofilm formation ([6]; at 1, 5, 10 μg/mL, 24 or 48 hours in LB): inhibited biofilm formation | Growth of planktonic cells [7]: does not inhibit growth of planktonic cells | Acquired resistance (change in IC50, ratio of new to original) [8]: does not acquire resistance

O=C(O)c1cn(C2CC2)c2cc(N3CCNCC3)c(F)cc2c1=O [ciprofloxacin]
Acquired resistance (change in IC50, ratio of new to original) [8]: significant increase in the IC50

CN[C@H](CC(C)C)C(=O)N[C@H]1C(=O)N[C@@H](CC(N)=O)C(=O)N[C@H]2C(=O)N[C@H]3C(=O)N[C@H](C(=O)N[C@H](C(=O)O)c4cc(O)cc(O)c4-c4cc3ccc4O)[C@H](O)c3ccc(c(Cl)c3)Oc3cc2cc(c3O[C@@H]2O[C@H](CO)[C@@H](O)[C@H](O)[C@H]2O[C@H]2C[C@](C)(N)[C@H](O)[C@H](C)O2)Oc2ccc(cc2Cl)[C@H]1O [Vancomycin, reference compound]
MIC50 ([2]; Escherichia coli, D31, read-out: E. Coli MIC50): 192 µg/mL (≈ 132 µM) | MIC90 ([2]; Escherichia coli, D31, read-out: E. Coli MIC90): > 200 µg/mL | MIC50 ([3]; Staphylococcus aureus, read-out: S. Aureus MIC50): 0.8 µg/mL (≈ 0.552 µM) | MIC90 ([3]; Staphylococcus aureus, read-out: S. Aureus MIC90): 1.2 µg/mL (≈ 0.828 µM) | MIC50 [5]: < 0.8 µg/mL | MIC90 [5]: < 0.8 µg/mL | Acquired resistance (change in IC50, ratio of new to original) [8]: marked contrast

NCCCCNc1nc(NCc2ccccc2)nc(Nc2cccc3ccccc23)n1 [TN3]
MIC50 [1]: 50.8 µg/mL (≈ 123 µM) | MIC90 [1]: 77.4 µg/mL (≈ 187 µM) | MIC50 ([2]; E. coli D31, Table 1): 40 µg/mL (≈ 96.7 µM) | MIC90 ([2]; E. coli D31, Table 1): 84.8 µg/mL (≈ 205 µM) | MIC50 ([3]; S. aureus, Table 1): 50.1 µg/mL (≈ 121 µM) | MIC90 ([3]; S. aureus, Table 1): 71.3 µg/mL (≈ 172 µM) | HD50 ([4]; 50% hemolysis, Table 1): 901.9 µg/mL

CCCCN(CCCC)CCCNc1nc(NCc2ccccc2)nc(Nc2cccc3ccccc23)n1 [TN2]
MIC50 [1]: 12.8 µg/mL (≈ 25 µM) | MIC90 [1]: 15.8 µg/mL (≈ 30.9 µM) | MIC50 ([2]; E. coli D31, Table 1): 26.9 µg/mL (≈ 52.6 µM) | MIC90 ([2]; E. coli D31, Table 1): 55.6 µg/mL (≈ 109 µM) | MIC50 ([3]; S. aureus, Table 1): 12.1 µg/mL (≈ 23.6 µM) | MIC90 ([3]; S. aureus, Table 1): 14.55 µg/mL (≈ 28.4 µM) | HD50 ([4]; 50% hemolysis, Table 1): 840.8 µg/mL

NCCCNc1nc(NCCc2c[nH]c3ccccc23)nc(NCCc2c[nH]c3ccccc23)n1 [TZ-WKW]
IC50 ([2]; Escherichia coli, D31, read-out: E. coli IC50): 4.5 µg/mL (≈ 9.58 µM) | MIC50 [2, 9]: 4.5 µg/mL (≈ 9.58 µM) | MIC90 [2, 10]: 6 µg/mL (≈ 12.8 µM) | MIC50 [3, 12]: 3.4 µg/mL (≈ 7.24 µM) | MIC90 [3, 13]: 4.4 µg/mL (≈ 9.37 µM) | IC50 ([3]; Staphylococcus aureus): 3.4 µg/mL (≈ 7.24 µM) | MIC50 ([5]; Table 2): 1.5 µg/mL (≈ 3.19 µM) | MIC90 ([5]; Table 2): 2.3 µg/mL (≈ 4.9 µM) | IC50 [5]: 1.5 µg/mL (≈ 3.19 µM) | HD50 ([4]; Table 3): 65 µg/mL

gentamycin
Acquired resistance (change in IC50, ratio of new to original) [8]: marked contrast; also recorded: significant increase in the IC50

N=C(N)NCCNc1nc(NCCc2c[nH]c3ccccc23)nc(NCCc2c[nH]c3ccccc23)n1 [TZ-WRW]
MIC50 [2, 9]: 4.1 µg/mL (≈ 8.24 µM) | MIC90 [2, 10]: 9.1 µg/mL (≈ 18.3 µM) | IC50 [2, 11]: 4.1 µg/mL (≈ 8.24 µM) | MIC50 [3, 12]: 3.3 µg/mL (≈ 6.63 µM) | MIC90 [3, 13]: 3.5 µg/mL (≈ 7.03 µM) | IC50 ([3]; Staphylococcus aureus): 3.3 µg/mL (≈ 6.63 µM) | MIC50 ([5]; Table 2): 2.9 µg/mL (≈ 5.83 µM) | MIC90 ([5]; Table 2): 5.1 µg/mL (≈ 10.2 µM) | IC50 [5]: 2.9 µg/mL (≈ 5.83 µM) | HD50 ([4]; Table 3): 43.6 µg/mL

Reference: patent publication US9273015B2, “s-Triazine compounds, pharmaceutical compositions and methods of using the same” (NEW YORK UNIVERSITY, priority 2010, dated 2016)
